In patent US20250032636A1, “Phage-Drug Conjugate” (The University of Sydney, priority 2021, published 2025):
Where two headings read alike, the source gives them in different places.

Legend:
P. aeruginosa biofilm [1] = experiment: Biofilm formation inhibition assay, crystal violet staining; format: cell-based, Pseudomonas aeruginosa PAO1; details: 6 h
Experimental: (§1) A Pseudomonas aeruginosa PAO1 inoculum was freshly prepared by inoculating one colony in 10 mL of LB broth and incubating on an orbital shaker at 220 rpm at 37° C. for 16-17 h. The bacterium culture medium was diluted 200-fold to an optical density at 600 nm (OD600) between 0.003-0.005 in M9 minimal medium (containing 48 mM Na2HPO4, 22 mM KH2PO4, 9 mM NaCl, 19 mM NH4Cl, 2 mM MgSO4, 0.1 mM CaCl2), and 20 mM glucose, pH 7.0). This medium was freshly prepared for each experiment.
For the biofilm inhibition assay, various treatment formulations were added to the 24-well microtiter plates simultaneously as cell culture media placement. The plates were incubated on an orbital shaker at 180 rpm for 6 h incubation at 37° C. For this 6 h biofilm dispersal assay, the plates were incubated on an orbital shaker at 180 rpm for 6 h at 37° C. for biofilm formation. Planktonic bacteria were removed, and 1 mL of fresh M9 minimal medium was added to each well, followed by each treatment addition. The plates were incubated for a further 2.5-3 h before quantifying the biofilm biomass and viabilities of biofilm bacteria.
(§2) The biofilm biomass was analysed by crystal violet (CV) staining. The biofilm on each well surface of the plates was washed once with 1 mL PBS before CV staining. 1 mL of 0.1% CV solution made by a 1:20 dilution of 2% CV aqueous solution in PBS. The CV stained biofilm was washed twice with 1 mL PBS after 20 min incubation. The remaining CV stained biofilm was dissolved in 33% glacial acetic acid and quantified by measuring the absorbance at 550 nm (OD550) using a multimode microplate reader (VICTOR™ X4, Perkin-Elmer). All biofilm assays were performed in two independent experiments.

P. aeruginosa biofilm [2] = experiment: Biofilm dispersal assay, crystal violet staining of biofilm biomass; format: cell-based, Pseudomonas aeruginosa PAO1
Experimental: as §1
For the biofilm inhibition assay, various treatment formulations were added to the 24-well microtiter plates simultaneously as cell culture media placement. The plates were incubated on an orbital shaker at 180 rpm for 6 h incubation at 37° C. For this 6 h biofilm dispersal assay, the plates were incubated on an orbital shaker at 180 rpm for 6 h at 37° C. for biofilm formation. Planktonic bacteria were removed, and 1 mL of fresh M9 minimal medium was added to each well, followed by each treatment addition. […]
The concentrations of each component used for the treatments would be based on their individual effects on biofilm dispersal. […]
as §2
(§3) Biofilm dispersal and bacterial viability assays were conducted as described above using samples set out in Table 2. A graph illustrating the effects of different POEGA-b-PPFPA conjugated formulations on biofilm dispersal are shown in FIG. 13 and on biofilm cell survival are shown in FIG. 14.

[3] = system: P. aeruginosa biofilm bacteria; experiment: Biofilm bacteria viability by CFU counting (drop-plate method); format: cell-based, Pseudomonas aeruginosa PAO1; details: FIG. 8; single component alone (AMK 4 or 8 μg/mL, nitroxide 2 mM, phage 10^6 PFU/mL); 2 h treatment
Experimental: The cells in the treated and untreated groups were counted using the drop-plated method to determine the biofilm bacteria viability. Biofilms on the surface of the wells were rinsed with once 1 mL PBS and then were resuspended in 1 mL PBS. The 24-well plates were placed in an ultrasonication bath for 5 min before viable cells count assay. The re-suspended biofilm bacteria were serially diluted 10-fold (10^−1 to 10^−10) in PBS, and 10 μL of each dilution was dropped onto MH agar plates in duplicate, which were incubated at 37° C. overnight. The results are presented as CFU mL^−1. A graph illustrating the effects of different POEGA-b-PVBA conjugated formulations on biofilm cell survival are shown in FIG. 8.
as §3

P. aeruginosa W.T. PAO1 = experiment: Minimum inhibitory concentration (MIC), broth microdilution; format: cell-based, Pseudomonas aeruginosa; details: 37° C., 24 h
Experimental: The minimum inhibitory concentration (MIC) of the antimicrobial agents was measured using the broth microdilution technique. A bacterial culture medium with 10^5-10^6 CFU mL^−1 was prepared freshly in Mueller-Hinton (MH) broth and added to a 2-fold serial dilution of antimicrobial agents in 96-well microplates. A cell-only control and a medium-only control were also included in the same microplate. The 96-well microplates were incubated at 37° C. for 24 h. MIC was determined to be the concentration of antimicrobial agents at which the optical density (OD600) was equal to that of a medium-only control using a multimode microplate reader (VICTOR™ X4, Perkin-Elmer). The MIC can also be recorded as the lowest concentration preventing visible bacterial growth after 24 h.

P. aeruginosa biofilms = experiment: Confocal microscopy of LIVE/DEAD stained biofilms; format: cell-based, Pseudomonas aeruginosa; details: nitroxide at 2 mM; LIVE/DEAD staining, FIG. 9
Experimental: For microscopy analysis, P. aeruginosa biofilms were grown in glass-bottom 24-well plates (MatTek Corporation, Ashland MA, USA) for 6 h. After 3 h treatment, biofilms were rinsed twice with PBS before being stained with LIVE/DEAD® BacLight™ bacterial viability kit reagents (L-7007, Molecular Probes) according to the manufacturer's procedure. According to the manufacturer's procedure, 1 to 10 dilution of each of the two components was freshly prepared with PBS. 0.3 mL of the mixed solution was added to each well for 20 min incubation, and the plate was kept in the dark condition. The samples were analysed using confocal laser scanning microscopy (CLSM) with a Nikon A1 confocal microscope. Representative confocal images showing P. aeruginosa biofilms treated with POEGA-b-PVBA conjugated formulations are shown in FIG. 9.

| Compound | effect on inhibiting the formation of biofilms (P. aeruginosa biofilm [1]; AMK at a higher concentration than 4 μg mL^−1) | concentration at which biofilm formation was inhibited (P. aeruginosa biofilm [1]; added with inoculated culture) [µg/mL] | reduction of biofilm biomass of pre-established P. aeruginosa biofilm (P. aeruginosa biofilm [2]; AMK alone at 32 μg mL^−1, 8×MIC, 6 h biofilm, 2 h treatment) [%] | effect on biofilm dispersal (P. aeruginosa biofilm [2]; cotreatment study FIG. 7, AMK 4 or 8 μg/ml, phage 10^6 PFU mL^−1, 6 h biofilm, 2 h treatment) | survival of biofilm bacteria [3] | MIC (P. aeruginosa W.T. PAO1; Pseudomonas aeruginosa, PAO1, MH broth, read-out: MIC) [µg/mL] | biofilm biovolume, confocal (P. aeruginosa biofilms) | inhibition of biofilm formation (P. aeruginosa biofilm [1]; nitroxide concentration range of 1 to 5 mM) | P. aeruginosa biofilm dispersal (P. aeruginosa biofilm [2]; comparative example, FIG. 13A, printed: nitroxide agent alone at AMK concentration of 8 μg/mL) | reduction of biofilm biomass (P. aeruginosa biofilm [2]; cotreatment study FIG. 7, nitroxide 2 mM, phage 10^6 PFU mL^−1, AMK 4 and 8 μg mL^−1, POEGA-b-PVBA linker, 2 h treatment) | P. aeruginosa biofilm dispersal (P. aeruginosa biofilm [2]; nitroxide alone at 2 mM, 6 h biofilm, 2 h treatment) [%] | P. aeruginosa biofilm dispersal (P. aeruginosa biofilm [2]; nitroxide alone at 5 mM, 6 h biofilm, 2 h treatment) [%] | MIC (P. aeruginosa W.T. PAO1; MH broth) [mM] |
| --- | --- | --- | --- | --- | --- | --- | --- | --- | --- | --- | --- | --- | --- |
| NCC[C@H](O)C(=O)N[C@@H]1C[C@H](N)[C@@H](O[C@H]2O[C@H](CN)[C@@H](O)[C@H](O)[C@H]2O)[C@H](O)[C@H]1O[C@H]1O[C@H](CO)[C@@H](O)[C@H](N)[C@H]1O [AMK, amikacin] | strong effect | 4 | 10 | did not have an effect | did not affect | 4 |  |  |  |  |  |  |  |
| CC1(C)CC(N)CC(C)(C)N1[O] [nitroxide, 4-amino-2,2,6,6-tetramethyl-piperidinyloxyl] |  |  |  |  | did not affect |  | greatly reduced biofilm biovolume | significantly inhibited biofilm formation | about 30% | about 30% | 30 | 70 | 6 |
